Measurements taken from US20260216294A1, “BETA 2-ADRENERGIC RECEPTOR AGONISTS FOR TREATMENT OR PREVENTION OF MUSCLE WASTING” (ATROGI AB, priority 2023, published 2026).

How the values were obtained:
L6-myotubes [1] = experiment: Glucose uptake in differentiated L6-myotubes (Biological Example 2); assay type: cell-based; conditions: read-out: Biological example 2 (GU)
Procedure: (§1) Compounds described in publications referenced and incorporated herein were screened in accordance with the procedures outlined in Biological example 2 and Biological example 3.
Differentiated L6-myotubes were serum-starved overnight in medium containing 0.5% fatty-acid free BSA and stimulated with isoprenaline or the test compound, with a final concentration of 1×10^−5 M. After 1 h 40 min the cells were washed with warm glucose free medium or PBS twice and another portion of agonist was added to the glucose free medium. After 20 min the cells were exposed to 50 nM ^3H-2-deoxyglucose for 10 min before washed with ice cold glucose free medium or PBS three times and lysed with 0.2 M NaOH, 400 μL/well, for 1 h at 60° C. The cell lysate was mixed with 4 mL scintillation buffer (Emulsifier Safe, Perkin Elmer) and the radioactivity was detected in a […] (Tri-Carb 4810TR, Perkin Elmer).

L6-myotubes [2] = experiment: Measurement of intracellular cAMP levels in differentiated L6-myotubes (Biological Example 3); assay type: cell-based; conditions: 0.25 h
Procedure: as §1
Differentiated L6-myotubes were serum-starved overnight and stimulated with isoprenaline or the test compound with a final concentration of 1×10^−5 M, for 15 min in stimulation buffer (HBSS supplemented with 1% BSA, 5 mM HEPES and 1 mM IBMX, pH 7.4). The medium was aspirated and 100 μL of 95% EtOH was added to each well of the 24-well plate and cells were kept at −20° C. overnight. The EtOH was allowed to evaporate and 500 μL of lysis buffer (1% BSA, 5 mM HEPES and 0.3% Tween-20, pH 7.4) was added to each well. The plate was kept at −80° C. for 30 min and then at −20° C. until the day of detection when the samples were thawed. Intracellular cAMP levels were detected using an alpha screen cAMP kit (6760635D from Perkin Elmer).

[3] = glucose uptake in differentiated L6-myotubes, compound at 10 μM, activity relative to isoproterenol at 10 μM
[4] = intracellular cAMP in differentiated L6-myotubes, compound at 10 μM, activity relative to isoproterenol at 10 μM
[5] = glucose uptake, compound at 10 μM relative to isoproterenol at 10 μM
[6] = intracellular cAMP, compound at 10 μM relative to isoproterenol at 10 μM

Question: With `CC(C)(C[C@H]1CC[C@H](NS(C)(=O)=O)CC1)NC[C@H](O)c1cccc(C(F)(F)F)n1` [Compound 461, (S)-2-{1,1-dimethyl-2-[(1r,4S)-4-(mesylamino)cyclohexyl]ethylamino}-1-[6-(trifluoromethyl)-2-pyridyl]-1-ethanol] as the compound, how does the Emax at 10 µM (L6-myotubes [1]; [3]) read?
Answer: 25 to 50%

Question: And the Emax at 10 µM (L6-myotubes [2]; [4])?
Answer: < 25%

Question: Which results are given for `COC(=O)[C@H]1CC[C@H](CCC(C)(C)NC[C@H](O)c2cncc(F)c2)CC1` [Compound 342, methyl (1R,4r)-4-{3-[(R)-2-(5-fluoro-3-pyridyl)-2-hydroxyethylamino]-3-methylbutyl} cyclohexanecarboxylate]?
Answer: Emax at 10 µM (L6-myotubes [1]; [3]): > 75%; Emax at 10 µM (L6-myotubes [2]; [4]): < 25%

Question: What does the source list for `CC(=O)N[C@H]1CC[C@H](CNC[C@H](O)c2cccc(F)c2)CC1` [Compound 308]?
Answer: Emax at 10 µM (L6-myotubes [1]; [3]): 50 to 75%; Emax at 10 µM (L6-myotubes [2]; [4]): < 25%

Question: Which results are given for `CCC[C@@H]1CCCC[C@H]([C@H](O)c2cncc(F)c2)N1` [Compound 219, (R)-[(2R,7R)-7-propyl-2-azepanyl](5-fluoro-3-pyridyl)methanol]?
Answer: Emax at 10 µM (L6-myotubes [1]; [3]): < 25%; Emax at 10 µM (L6-myotubes [2]; [4]): < 25%

Question: What does the source list for `CC(C)(C[C@H]1CC[C@@H](C#N)CC1)NC[C@H](O)c1cccc(F)c1` [Compound 399, (1S,4s)-4-{2-[(R)-2-(m-fluorophenyl)-2-hydroxyethylamino]-2-methylpropyl} cyclohexanecarbonitrile]?
Answer: Emax at 10 µM (L6-myotubes [1]; [3]): > 75%; Emax at 10 µM (L6-myotubes [2]; [4]): 25 to 50%

Question: `CCS(=O)(=O)N[C@H]1CC[C@@H](CC(C)(C)NC[C@H](O)c2cncc(F)c2)CC1` [Compound 524] was tested. Which Emax at 10 µM (L6-myotubes [1]; [3]) did it give?
Answer: 50 to 75%

Question: What about the Emax at 10 µM (L6-myotubes [2]; [4]) of the same compound?
Answer: < 25%

Question: Which results are given for `O[C@H](c1cncc(F)c1)C12CCC(CCc3ccc(OC(F)(F)F)cc3)(CC1)N2` [Compound 545, (R)-(5-fluoro-3-pyridyl){4-[2-(p-trifluoromethoxyphenyl)ethyl]-7-azabicyclo[[2.2.1]]hept-1-yl}methanol]?
Answer: Emax at 10 µM (L6-myotubes [1]; [3]): < 25%; Emax at 10 µM (L6-myotubes [2]; [4]): < 25%

Question: How did the Emax at 10 µM (L6-myotubes [1]; [3]) turn out when `CC(=O)N[C@H]1CC[C@@H](CC(C)(C)NC[C@H](O)c2cccc(C(F)(F)F)n2)CC1` [Compound 462] was run?
Answer: 25 to 50%

Question: And the Emax at 10 µM (L6-myotubes [2]; [4])?
Answer: < 25%

Question: `CCC[C@H]1CC[C@H]([C@H](O)c2cccc(F)c2)N1` [Compound 124, (R)-[(2R,5S)-5-propyl-2-pyrrolidinyl](m-fluorophenyl)methanol] was tested. Which Emax at 10 µM (L6-myotubes [1]; [5]) did it give?
Answer: 50 to 75%

Question: And the Emax at 10 µM (L6-myotubes [2]; [6])?
Answer: < 25%

Question: Which Emax at 10 µM (L6-myotubes [1]; [3]) does the source give for `O[C@@H](c1cncc(F)c1)[C@H]1CC[C@H](Cc2ccc(Cl)cc2)N1` [Compound 405, (S)-{(2R,5R)-5-[(p-chlorophenyl)methyl]-2-pyrrolidinyl}(5-fluoro-3-pyridyl)methanol] here?
Answer: > 75%

Question: And the Emax at 10 µM (L6-myotubes [2]; [4])?
Answer: < 25%

Question: With `CO[C@H]1CC[C@@H](CCCNC[C@H](O)c2cncc(F)c2)CC1` [Compound 260, (R)-1-(5-fluoro-3-pyridyl)-2-{3-[(1s,4R)-4-methoxycyclohexyl]propylamino}-1-ethanol] as the compound, how does the Emax at 10 µM (L6-myotubes [1]; [3]) read?
Answer: > 75%

Question: And the Emax at 10 µM (L6-myotubes [2]; [4])?
Answer: < 25%

Question: `CC(C)(C[C@H]1CC[C@@H](NC(=O)C2CC2)CC1)NC[C@H](O)c1cccc(F)c1` [Compound 447] was tested. Which Emax at 10 µM (L6-myotubes [1]; [3]) did it give?
Answer: > 75%

Question: And the Emax at 10 µM (L6-myotubes [2]; [4])?
Answer: < 25%

Question: Which results are given for `CN([C@H]1CC[C@@H](CC(C)(C)NC[C@H](O)c2cccc(F)c2)CC1)S(C)(=O)=O` [Compound 498, (R)-2-{1,1-dimethyl-2-[(1s,4S)-4-(N-mesyl-N-methylamino)cyclohexyl]ethylamino}-1-(m-fluorophenyl)-1-ethanol]?
Answer: Emax at 10 µM (L6-myotubes [1]; [3]): 25 to 50%; Emax at 10 µM (L6-myotubes [2]; [4]): < 25%

Question: `CC12CC(C1)[C@@H]([C@@H](O)c1cccc(F)c1)N2` [Compound 189] was tested. Which Emax at 10 µM (L6-myotubes [1]; [5]) did it give?
Answer: 50 to 75%

Question: What about the Emax at 10 µM (L6-myotubes [2]; [6]) of the same compound?
Answer: < 25%

Question: Which results are given for `CO[C@H]1CC[C@H](CC(C)(C)NC[C@H](O)c2cncc(F)c2)CC1` [Compound 250, (R)-2-{1,1-dimethyl-2-[(1r,4R)-4-methoxycyclohexyl]ethylamino}-1-(5-fluoro-3-pyridyl)-1-ethanol]?
Answer: Emax at 10 µM (L6-myotubes [1]; [3]): 50 to 75%; Emax at 10 µM (L6-myotubes [2]; [4]): < 25%

Question: Which Emax at 10 µM (L6-myotubes [1]; [3]) does the source give for `CS(=O)(=O)N[C@H]1CC[C@@H](CNC[C@H](O)c2cncc(F)c2)CC1` [Compound 314, (R)-1-(5-fluoro-3-pyridyl)-2-({[(1s,4S)-4-(mesylamino)cyclohexyl]methyl}amino)-1-ethanol] here?
Answer: 50 to 75%

Question: What about the Emax at 10 µM (L6-myotubes [2]; [4]) of the same compound?
Answer: < 25%
